Assays:
LOLRI [1] = experiment: Pre-emergence action against LOLRI, 1280 g/ha; type: in vivo, Lolium rigidum; details: visual scoring after about 3 weeks vs untreated controls, 100% = plants have died, 0% = like control plants; for pest or weed control at 1280 g/ha: Lolium rigidum, 504 h
Method in brief: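 Each pot was doubly sown in sandy loam and covered, then its soil surface was treated with compound suspension or emulsion containing 0.5% additive at 600 L/ha water. Plants grew in a greenhouse; effect was rated visually as percentages versus controls after about 3 weeks.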

AVEFA [2] = experiment: Pre-emergence action at 320 g/ha against AVEFA; type: in vivo; details: visual scoring after about 3 weeks vs untreated controls; for pest or weed control at 320 g/ha: Avena fatua, 504 h
Method in brief: (§1)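 Application: aqueous WP or EC with 0.5% additive on soil covering seeds, 600 l/ha. Read-out: visual percent damage after ~3 weeks in greenhouse, untreated pots as reference.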

ECHGC = experiment: Pre-emergence action at 320 g/ha against ECHGC; type: in vivo, Echinochloa crus-galli; details: visual scoring after about 3 weeks vs untreated controls
Method in brief: as §1

LOLRI [3] = experiment: Pre-emergence action at 320 g/ha against LOLRI; type: in vivo, Lolium rigidum; details: visual scoring after about 3 weeks vs untreated controls; for pest or weed control at 320 g/ha: Lolium rigidum, 504 h
Method in brief: as §1

VERPE [4] = experiment: Pre-emergence action at 320 g/ha against VERPE; type: in vivo, Veronica persica; details: visual scoring after about 3 weeks vs untreated controls; for pest or weed control at 320 g/ha: Veronica persica, 504 h
Method in brief: as §1

VIOTR [5] = experiment: Pre-emergence action at 320 g/ha against VIOTR; type: in vivo, Viola tricolor; details: dosage 320 g/ha; for pest or weed control at 320 g/ha: Viola tricolor, 504 h
Method in brief: as §1

AMARE = experiment: Post-emergence action against AMARE, 1.28 kg/ha; type: in vivo, Amaranthus retroflexus; details: dosage 1280 g/ha, visual rating about 3 weeks after treatment vs untreated controls (100% = plants died)
Method in brief: (§2)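 Greenhouse-grown weeds (sandy loam, twin-sown pots) were treated 2–3 weeks post-sowing at one leaf. The spray was an aqueous WP/EC preparation plus 0.5% additive, applied at 600 L/ha. Scoring was visual at ~3 weeks, 0–100% versus untreated controls.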

VERPE [6] = experiment: Post-emergence action against VERPE, 1.28 kg/ha; type: in vivo, Veronica persica; details: dosage 1280 g/ha, visual rating about 3 weeks after treatment vs untreated controls (100% = plants died); for pest or weed control at 1280 g/ha: Veronica persica, 504 h
Method in brief: as §2

DIGSA [7] = experiment: Post-emergence action at 320 g/ha against DIGSA; type: in vivo, Digitaria sanguinalis; details: dosage 320 g/ha, visual rating about 3 weeks after treatment vs untreated controls (100% = plants died); for pest or weed control at 320 g/ha: Digitaria sanguinalis, 504 h
Method in brief: (§3)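 Activity is a visual rating against untreated controls, with 0% like control and 100% dead plants, made about 3 weeks after treatment. Plants grown in sandy loam in the greenhouse received a post-emergence spray at the one-leaf stage of 320 g/ha, formulated as WP or EC with 0.5% additive in 600 l/ha water.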

ECHCG = experiment: Post-emergence action at 320 g/ha against ECHCG; type: in vivo, Echinochloa crus-galli; details: dosage 320 g/ha, visual rating about 3 weeks after treatment vs untreated controls (100% = plants died)
Method in brief: as §3

AVEFA [8] = experiment: Post-emergence action at 320 g/ha against AVEFA; type: in vivo; details: visual rating about 3 weeks after treatment vs untreated controls; for pest or weed control at 320 g/ha: Avena fatua, 504 h
Method in brief: as §3

ALOMY = experiment: Post-emergence action against ALOMY, 1.28 kg/ha; type: in vivo, Alopecurus myosuroides; details: dosage 1280 g/ha, visual rating about 3 weeks after treatment vs untreated controls
Method in brief: as §2

DIGSA [9] = experiment: Post-emergence action against DIGSA, 1.28 kg/ha; type: in vivo, Digitaria sanguinalis; details: dosage 1280 g/ha, visual rating about 3 weeks after treatment vs untreated controls
Method in brief: as §2

SETVI = experiment: Post-emergence action against SETVI, 1.28 kg/ha; type: in vivo, Setaria viridis; details: dosage 1280 g/ha, visual rating about 3 weeks after treatment vs untreated controls
Method in brief: as §2

VIOTR [10] = experiment: Post-emergence action at 320 g/ha against VIOTR; type: in vivo, Viola tricolor; details: visual rating about 3 weeks after treatment vs untreated controls
Method in brief: as §3

LOLRI [11] = experiment: Post-emergence action against LOLRI, 1.28 kg/ha; type: in vivo, Lolium rigidum; details: dosage 1280 g/ha, visual rating about 3 weeks after treatment vs untreated controls
Method in brief: as §2

Compound	Pre-emergence action against ECHGC in % (ECHGC)	Post-emergence action against AMARE (AMARE)	Post-emergence action at 320 g/ha against ECHCG in % (ECHCG)	Pre-emergence action against LOLRI (LOLRI [1])	Pre-emergence action against AVEFA in % (AVEFA [2])	Pre-emergence action against LOLRI in % (LOLRI [3])	Pre-emergence action against VERPE in % (VERPE [4])	Pre-emergence action against VIOTR in % (VIOTR [5])	Post-emergence action against ALOMY (ALOMY)	Post-emergence action against DIGSA (DIGSA [9])	Post-emergence action against SETVI (SETVI)	Post-emergence action against VERPE (VERPE [6])	Post-emergence action at 320 g/ha against DIGSA in % (DIGSA [7])	Post-emergence action against VIOTR in % (VIOTR [10])	Post-emergence action against AVEFA in % (AVEFA [8])	Post-emergence action against LOLRI (LOLRI [11])	further results
C=CCNC(=O)COc1nn(-c2ccccc2F)c(-c2ccc(F)nc2)c1Br [Example X-001, N-Allyl-2-{[4-bromo-1-(2-fluorophenyl)-5-(6-fluoropyridin-3-yl)-1H-pyrazol-3-yl]oxy}acetamide]	100%	90%	80%	–	–	–	–	–	–	–	–	–	–	–	–	–	pest or weed control at 1280 g/ha (LOLRI [1]): 100%; pest or weed control at 320 g/ha (AVEFA [2]): 90%; pest or weed control at 320 g/ha (LOLRI [3]): 100%; pest or weed control at 320 g/ha (VERPE [4]): 80%; pest or weed control at 320 g/ha (VIOTR [5]): 100%; pest or weed control at 1280 g/ha (VERPE [6]): 100%; pest or weed control at 320 g/ha (DIGSA [7]): 80%; pest or weed control at 320 g/ha (AVEFA [8]): 90%
COC(=O)CNC(=O)COc1nn(-c2ccccc2F)c(-c2ccc(F)nc2)c1Br [Example X-002]	100%	90%	100%	100%	100%	100%	100%	100%	90%	100%	100%	90%	100%	90%	100%	–	–
O=C(O)COc1nn(-c2ccccc2F)c(-c2cncnc2)c1Br [VI-007, {[4-Bromo-1-(2-fluorophenyl)-5-(pyrimidin-5-yl)-1H-pyrazol-3-yl]oxy}acetic Acid]	–	–	80%	–	–	–	–	–	90%	100%	90%	–	–	–	–	–	pest or weed control at 1280 g/ha (LOLRI [1]): 100%; pest or weed control at 320 g/ha (AVEFA [2]): 90%; pest or weed control at 320 g/ha (LOLRI [3]): 100%; pest or weed control at 320 g/ha (VERPE [4]): 100%; pest or weed control at 320 g/ha (VIOTR [5]): 100%; pest or weed control at 1280 g/ha (VERPE [6]): 90%; pest or weed control at 320 g/ha (DIGSA [7]): 80%; pest or weed control at 320 g/ha (VIOTR [10]; Viola tricolor, 504 h): 90%; pest or weed control at 320 g/ha (AVEFA [8]): 100%
CCOC(=O)COc1nn(-c2ccccc2F)c(-c2ccc(F)nc2)c1C(F)(F)F [VII-010]	100%	–	90%	100%	90%	100%	100%	100%	100%	100%	90%	90%	90%	80%	100%	–	–
COC(=O)[C@@H](C)Oc1nn(-c2cc(F)ccc2F)c(-c2ccc(F)nc2)c1Br [VII-062]	–	–	80%	100%	100%	100%	100%	100%	100%	100%	–	100%	90%	80%	90%	100%	–
CCOC(=O)C(C)Oc1nn(-c2ccccc2F)c(-c2ccc(F)nc2)c1C(F)(F)F (stereo not shown) [VII-066]	90%	90%	80%	100%	90%	90%	100%	100%	100%	100%	90%	90%	90%	80%	–	100%	–
O=C(COc1nn(-c2ccccc2F)c(-c2ccc(F)nc2)c1Br)OCC1OCCO1 [VII-103]	80%	90%	80%	100%	90%	100%	100%	100%	100%	100%	90%	100%	90%	–	80%	100%	–
COC(=O)[C@H](C)Oc1nn(-c2cc(F)ccc2F)c(-c2ccc(F)nc2)c1Br [VII-107]	–	100%	80%	90%	90%	80%	80%	100%	100%	100%	90%	100%	90%	80%	–	–	–
